# Assay results: patent US7927622B1, “Methods of transnasal transport/immunization with highly adaptable carriers” (priority 1999, dated 2011)
# Non-standard residues stand in square brackets, D forms with d. Residues, ends and D or L forms follow the SMILES beside them. dTrp(2-Me) = Cc1[nH]c2ccccc2c1C[C@@H](N)C(=O)O
# B1: rhG-CSF: recombinant human granulocyte colony-stimulating factor, MW=19600 (protein, UniProt P09919 31-207, looked up)
# Granulocyte …: TPLGPASSLPQSFLLKCLEQVRKIQGDGAALQEKLVSECATYKLCHPEELVLLGHSLGIPWAPLSSCPSQALQLAGCLSQLHSGLFLYQGLLQALEGISPELGPTLDTLQLDVADFATTIWQQMEELGMAPALQPTQGAMPAFASAFQRRAGGVLVASHLQSFLEVSYRVLRHLAQP
# B2: OVA: ovalbumin (protein, UniProt P01012 2-386, looked up)
# Ovalbumin: GSIGAASMEFCFDVFKELKVHHANENIFYCPIAIMSALAMVYLGAKDSTRTQINKVVRFDKLPGFGDSIEAQCGTSVNVHSSLRDILNQITKPNDVYSFSLASRLYAEERYPILPEYLQCVKELYRGGLEPINFQTAADQARELINSWVESQTNGIIRNVLQPSSVDSQTAMVLVNAIVFKGLWEKAFKDEDTQAMPFRVTEQESKPVQMMYQIGLFRVASMASEKMKILELPFASGTMSMLVLLPDEVSGLEQLESIINFEKLTEWTSSNVMEERKIKVYLPRMKMEEKYNLTSVLMAMGITDVFSSSANLSGISSAESLKISQAVHAAHAEINEAGREVVGSAEAGVDAASVSEEFRADHPFLFCIKHIATNAVLFFGRCVSP
# Columns and labels:
# [1] = in vivo; cited from earlier work
# [2] = in vivo, cited from earlier work
# [3] = in vivo; cited from earlier work; remark: listed apart in the source
# [4] = in vivo; cited from earlier work; remark: listed apart in the source
# GH response = details: in vivo, cited from earlier work
# [5] = in vivo; cited from earlier work; remark: listed apart in the source
# [6] = human, in vivo, cited from earlier work
# [7] = cited from earlier work
# [8] = in vivo; cited from earlier work; remark: listed apart in the source
# A-receptor subtype = A-receptor subtype (Canis lupus familiaris, UniProt Q5D0K2); details: dog, in vivo; cited from earlier work
# [9] = rat, in vivo, sc; cited from earlier work
# [10] = human, in vivo; cited from earlier work
# [11] = in vivo; cited from earlier work; remark: listed apart in the source
# anti-TT antibodies = tested on: anti-TT antibodies; design: species or system mice; details: mouse, in vivo
# [12] = cited from earlier work; remark: listed apart in the source
# [13] = cited from earlier work; remark: listed apart in the source
# [14] = stomach and GI tract, cited from earlier work
# [15] = with polyoxyethylene 9-lauryl ether (Laureth-9)
# A-receptor subtype, sequence (Q5D0K2 whole entry): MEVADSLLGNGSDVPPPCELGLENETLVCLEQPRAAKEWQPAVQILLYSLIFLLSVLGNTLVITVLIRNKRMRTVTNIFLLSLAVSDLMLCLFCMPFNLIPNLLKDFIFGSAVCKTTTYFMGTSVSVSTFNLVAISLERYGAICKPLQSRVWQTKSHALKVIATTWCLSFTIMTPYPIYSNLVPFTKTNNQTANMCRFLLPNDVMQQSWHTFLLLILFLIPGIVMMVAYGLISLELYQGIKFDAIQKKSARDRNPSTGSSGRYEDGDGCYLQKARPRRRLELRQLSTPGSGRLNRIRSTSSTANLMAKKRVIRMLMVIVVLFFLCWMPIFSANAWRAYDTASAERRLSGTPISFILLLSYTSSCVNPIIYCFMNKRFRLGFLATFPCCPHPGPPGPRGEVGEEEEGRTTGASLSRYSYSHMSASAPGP
molecule,measurement,setting,value
NC(=O)CC[C@@H]1NC(=O)[C@H](Cc2ccccc2)NC(=O)[C@H](Cc2ccc(O)cc2)NC(=O)[C@@H](N)CSSC[C@@H](C(=O)N2CCC[C@H]2C(=O)N[C@@H](CCCN=C(N)N)C(=O)NCC(N)=O)NC(=O)[C@H](CC(N)=O)NC1=O [AVP],memory performance,[1],enhanced memory performance
same,plasma vasopressin increase after i.v. relative to the other route,[2]; iv,exceeding 2000 fold
same,P3 component of the ERP,[2],substantially increased
NC(=O)CC[C@@H]1NC(=O)[C@H](Cc2ccccc2)NC(=O)[C@H](Cc2ccc(O)cc2)NC(=O)CCSSC[C@@H](C(=O)N2CCC[C@H]2C(=O)N[C@H](CCCN=C(N)N)C(=O)NCC(N)=O)NC(=O)[C@H](CC(N)=O)NC1=O [DDAVP],pain perception,[3],no general effect
CCNC(=O)[C@@H]1CCCN1C(=O)[C@H](CCCNC(=N)N)NC(=O)[C@H](CC(C)C)NC(=O)[C@@H](COC(C)(C)C)NC(=O)[C@H](Cc1ccc(O)cc1)NC(=O)[C@H](CO)NC(=O)[C@H](Cc1c[nH]c2ccccc12)NC(=O)[C@H](Cc1cnc[nH]1)NC(=O)[C@@H]1CCC(=O)N1 [buserelin],AFS mean pelvic score after treatment (from 24),[4],7
same,decrease of the size of the fibroids,[4],69%
Cc1[nH]c2ccccc2c1C[C@@H](NC(=O)[C@@H](N)Cc1cnc[nH]1)C(=O)N[C@@H](C)C(=O)N[C@@H](Cc1c[nH]c2ccccc12)C(=O)N[C@H](Cc1ccccc1)C(=O)N[C@@H](CCCCN)C(N)=O [hexarelin] (H-H[dTrp(2-Me)]AW[dF]K-NH2),IGF-I and IGFBP-3 levels,GH response; po,slightly but significantly increased
same,GH response,GH response,not significantly higher than that induced by an injection of 1 μg GHRH/kg
same,IGF-I,GH response,did not significantly modify
same,IGFBP-3 levels,GH response,increased
NC(=O)CC[C@@H]1NC(=O)[C@H](Cc2ccccc2)NC(=O)[C@H](Cc2ccc(O)cc2)NC(=O)[C@@H](N)CSSC[C@@H](C(=O)N2CCC[C@H]2C(=O)N[C@@H](CCCN=C(N)N)C(=O)NCC(N)=O)NC(=O)[C@H](CC(N)=O)NC1=O [vasopressin],nocturnal slow-wave sleep,[5],enhance nocturnal slow-wave sleep
CCK-8,auditory event related potential (AERP),[6]; iv,shown to affect the auditory event related potential (AERP)
same,plasma CCK-8 concentrations vs 0.25 μg i.v.,[6],comparable
same,plasma CCK-8 concentrations vs 2.5 μg i.v.,[6],substantially lower
GH: growth hormone protein,serum GH peak value,[7]; i.v. 0.015 IU/kg,128 µg/L
same,serum GH peak level,[7]; s.c. 0.10 IU/kg,around 14 μg/L
same,serum IGF-I levels,[7]; s.c. administration only,increased significantly
same,bioavailability,[7]; s.c. injection,50%
GHRP-2,response to intranasal GHRP-2,[8],"significant, but not quantitated, response"
Hpa(SO3H)-Nle-Gly-Trp-Nle-MeAsp-Phe-NH2,feeding,A-receptor subtype,inhibited feeding
Salmon calcitonin,effectiveness of the invasive method relative to nasal,[9],approximately 2 times
same,osteopenic changes,[9],prevented the osteopenic changes
same,"decrease in serum 1,25-dihydroxyvitamin D",[10],14%
same,inhibition of the increase in fasting 2 h urinary hydroxyproline/creatinine ratio (OHPr/Cr),[10],40%
same,lowering of the increase in calcium/creatinine ratio (Ca/Cr),[10],80%
same,pain scores (visual analog scale),[10],did not influence the pain scores
same,tolerability,[10],well tolerated
desglycinamide-[Arg8]vasopressin [DGAVP],learning concrete words,[11],no positive effect
same,reaction time for scanning of digits (Sternberg paradigm),[11],reduced the reaction time
same,short-term memory for abstract words,[11],improved short-term memory for abstract words in males but not in females
monophosphoryl Lipid A [LA],dependence of immune response on LA,anti-TT antibodies,no strong dependence was found
same,dose dependence of TT-specific increase in serum absorbance,anti-TT antibodies,reverting this trend
same,effect of LA with purified TT,anti-TT antibodies,profited from the presence of LA
B1,total leukocyte numbers in peripheral blood,"[12]; nasal, pH 4, with or without dimethyl-β-cyclodextrin",increased
same,absorption with excipients,[12]; with dimethyl-β-cyclodextrin,improved the absorption of rhG-CSF appreciably
same,availability from leukocyte stimulation counts,"[13]; nasal, t=48 h",5-10%
same,relative bioavailability compared to s.c. injection (plasma AUC),"[13]; rat, in vivo",approximately 2%
same,increase of pharmacological availability,[13]; [15],3 times
same,increase of relative bioavailability,[13]; [15],23 times
same,change of availability,[13]; with sodium glycocholate,no increase in availability
B2,"absorption into the blood circulation, of applied dose",[14]; first printed range,0.007-0.008%
same,"absorption into the lymph circulation, of applied dose",[14]; second printed range,0.0007-0.002%
